One may read the inhibition as how much of the control response was suppressed.

The target in experiment [1] is T1, BACE1-474 (extracellular domain and transmembrane domain of β-secretase) (Homo sapiens, UniProt P56817).
T1 construct: made in house; host or cells: FreeStyle 293-F cells (HEK293)
In words: Inhibitory action on BACE protein, fluorescence-quenched peptide substrate. The class given is biochemical. The following applies: final concentration: 10 μM; 37° C. for 63 hr; pH 5.5; read-out: inhibition rates on BACE1-474. On the procedure: (§1) To 96 black well plate, 25 μl of 0.05 M acetate buffer (pH 5.5), 10 μl of 250 μM substrate (Nma-Ser-Glu-Val-Lys-Met-Asp-Ala-Glu-Lys(Dnp)-Arg-Arg-NH2; SEQ ID NO: 11), 10 μl of BACE1-474 (0.02 mg/ml) or BACE1-454 (0.01 mg/ml) obtained from the above-mentioned Reference Example 5 or a recombinant human BACE-1 (amino acid residues 1-460, R & D Systems) (0.025 mg/ml) commercially available as an extracellular domain, and 5 μl of each compound in 10% DMSO solution, and as a control, 5 μl of 10% DMSO were added respectively, and allowed to be reacted at 37° C. for 63 hr. After completion of the reaction, the fluorescence intensity (excitation wavelength at 325 nm, measurement wavelength at 460 nm) was measured with Fluoroscan ASCENT.

The target of experiment [2] is T2, recombinant human BACE-1 (amino acid residues 1-460, R & D Systems) (Homo sapiens, UniProt P56817).
T2 construct: a recombinant human BACE-1 (amino acid residues 1-460, R & D Systems); purchased R & D Systems
The description is as above. The class given is biochemical. The following applies: final concentration: 10 μM; 37° C. for 63 hr; pH 5.5. On the procedure: as §1

In experiment [3] the target is T3, BACE1-454 (extracellular domain of β-secretase) (Homo sapiens, UniProt P56817).
T3 construct: made in house; host or cells: FreeStyle 293-F cells (HEK293), culture supernatant
The experiment is described as above. The class given is biochemical. Conditions: final concentration: 10 μM; 37° C. for 63 hr; pH 5.5. As to the method: as §1

Experiment [4] deals with T4, BACE1-465 (Homo sapiens, UniProt P56817).
T4 construct: made in house; host or cells: FreeStyle 293-F cells (HEK293), culture supernatant
In words: Inhibitory action on BACE1-465, fluorescence-quenched peptide substrate. The class given is biochemical. Conditions: final concentration: 10 μM; 37° C. for 22 hr; pH5.5. As to the method: (§2) To 96 black well plate, 25 μl of 0.05M acetate buffer (pH5.5), 10 μl of 250 μM substrate (Nma-Ser-Glu-Val-Lys-Met-Asp-Ala-Glu-Lys(Dnp)-Arg-Arg-NH2; SEQ ID NO: 11), 10 μl of BACE1-471 (0.05 mg/ml) or BACE1-465 (0.04 mg/ml) obtained from the above-mentioned Reference Example 7, and 5 μl of 0.1 mM Compound A in 10% DMSO solution, and as a control, 5 μl of 10% DMSO were added respectively, and allowed to be reacted at 37° C. for 50 hr for BACE1-471 and for 22 hr for BACE1-465. After completion of the reaction, the fluorescence intensity (excitation wavelength at 325 nm, measurement wavelength at 460 nm) was measured with Fluoroscan ASCENT.

In experiment [5] the target is T5, BACE1-471 (Homo sapiens, UniProt P56817).
T5 construct: made in house; host or cells: FreeStyle 293-F cells (HEK293)
The experiment in a line: Inhibitory action on BACE1-471, fluorescence-quenched peptide substrate. The class given is biochemical. The following applies: pH 5.5; final concentration: 10 μM; 37° C. for 50 hr; pH5.5; read-out: inhibition rates on BACE1-471. On the procedure:
as §2

The target of experiment [6] is T6, BACE1-501 (Homo sapiens, UniProt P56817).
T6 construct: Expression of full-length β-secretase protein (BACE1-501) was performed with FreeStyle 293 Expression System; made in house; host or cells: FreeStyle 293-F cells (HEK293)
In words: Detection of binding by surface plasmon resonance (Biacore3000). Conditions: PBS containing 10% DMSO and 0.005% Surfactant P20. An excerpt: Biacore3000 (Biacore) was used for analysis by surface plasmon resonance. BACE1-501 and the recombinant human BACE-1 (amino acid residue 1-460) were immobilized to carboxyl groups on CM5 sensorchip (carboxymethylated dextran matrix chip) activated with N-hydrosuccinimide (NHS)/N-ethyl-N′-(3-dimethyl-aminopropyl)-carbodiimide hydrochloride (EDC) in acetate buffer at pH 4.5. BACE1-454 and BACE1-474 were immobilized by the same way in acetate buffer at pH 4.0. The binding of the compound and the enzymes was measured in PBS containing 10% DMSO and 0.005% Surfactant P20. The correction of the difference of Resonance Unit (RU) value among flow cells resulting from the bulk effect was carried out with a correction curve made using the buffers with the DMSO concentration varied from 9% to 11% in the five-graded. As a result, signals showing the binding of each compound to BACE1-501 and BACE1-474 were observed. On the other hand, for BACE1-454 and the recombinant human BACE-1 (amino acid residue 1-460), no signal was observed showing the binding.
Background: In SPR one partner is held on a chip, and binding of the other changes the refractive index at the surface.

T5 sequence (P56817 with tags, fused parts or gaps): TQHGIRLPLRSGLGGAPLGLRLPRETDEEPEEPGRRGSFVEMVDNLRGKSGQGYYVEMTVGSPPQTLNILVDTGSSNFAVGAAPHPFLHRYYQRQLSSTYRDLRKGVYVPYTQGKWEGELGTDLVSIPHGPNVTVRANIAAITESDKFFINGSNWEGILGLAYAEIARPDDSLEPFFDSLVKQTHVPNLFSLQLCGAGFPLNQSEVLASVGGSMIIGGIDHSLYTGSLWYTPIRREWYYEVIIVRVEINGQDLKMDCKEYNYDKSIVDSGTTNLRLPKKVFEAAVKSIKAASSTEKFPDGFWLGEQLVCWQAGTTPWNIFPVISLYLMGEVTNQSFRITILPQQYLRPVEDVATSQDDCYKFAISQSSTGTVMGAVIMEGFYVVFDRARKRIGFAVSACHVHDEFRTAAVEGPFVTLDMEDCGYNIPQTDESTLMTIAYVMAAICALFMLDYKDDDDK
T3 sequence (P56817 with tags, fused parts or gaps): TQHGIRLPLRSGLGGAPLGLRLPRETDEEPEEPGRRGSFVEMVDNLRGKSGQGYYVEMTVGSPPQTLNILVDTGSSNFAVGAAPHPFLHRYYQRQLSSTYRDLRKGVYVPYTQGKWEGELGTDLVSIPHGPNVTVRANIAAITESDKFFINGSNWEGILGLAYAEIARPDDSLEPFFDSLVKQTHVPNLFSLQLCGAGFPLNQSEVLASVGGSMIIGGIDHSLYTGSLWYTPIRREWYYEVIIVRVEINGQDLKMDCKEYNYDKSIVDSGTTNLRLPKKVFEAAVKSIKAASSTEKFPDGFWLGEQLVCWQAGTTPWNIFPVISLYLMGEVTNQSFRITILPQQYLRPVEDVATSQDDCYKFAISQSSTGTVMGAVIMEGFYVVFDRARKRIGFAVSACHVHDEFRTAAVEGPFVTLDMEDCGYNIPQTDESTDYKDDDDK
T4 sequence (P56817 with tags, fused parts or gaps): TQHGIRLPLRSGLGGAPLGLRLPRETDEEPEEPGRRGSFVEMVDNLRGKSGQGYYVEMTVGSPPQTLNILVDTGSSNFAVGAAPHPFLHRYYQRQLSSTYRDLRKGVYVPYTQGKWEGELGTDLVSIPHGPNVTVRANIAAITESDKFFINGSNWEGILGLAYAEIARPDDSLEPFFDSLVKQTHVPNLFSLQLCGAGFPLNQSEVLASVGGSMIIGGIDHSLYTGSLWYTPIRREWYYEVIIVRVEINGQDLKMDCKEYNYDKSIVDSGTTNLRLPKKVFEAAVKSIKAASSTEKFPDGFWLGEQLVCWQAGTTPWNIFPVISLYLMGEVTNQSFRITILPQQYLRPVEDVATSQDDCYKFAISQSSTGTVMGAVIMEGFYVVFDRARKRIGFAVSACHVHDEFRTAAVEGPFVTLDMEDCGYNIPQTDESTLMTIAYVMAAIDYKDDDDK
T2 sequence (P56817 22-460): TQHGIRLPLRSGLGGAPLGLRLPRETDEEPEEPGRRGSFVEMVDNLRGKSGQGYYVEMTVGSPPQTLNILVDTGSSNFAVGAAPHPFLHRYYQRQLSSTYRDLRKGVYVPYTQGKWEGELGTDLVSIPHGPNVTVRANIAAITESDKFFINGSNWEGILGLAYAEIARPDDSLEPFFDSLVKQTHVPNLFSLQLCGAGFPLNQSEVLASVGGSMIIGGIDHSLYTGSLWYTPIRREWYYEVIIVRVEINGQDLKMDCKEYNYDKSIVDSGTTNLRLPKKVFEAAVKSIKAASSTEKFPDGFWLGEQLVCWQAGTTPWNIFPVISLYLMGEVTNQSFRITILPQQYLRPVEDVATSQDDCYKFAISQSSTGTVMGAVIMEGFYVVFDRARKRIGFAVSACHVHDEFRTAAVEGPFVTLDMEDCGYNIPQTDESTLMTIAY
T1 sequence (P56817 with tags, fused parts or gaps): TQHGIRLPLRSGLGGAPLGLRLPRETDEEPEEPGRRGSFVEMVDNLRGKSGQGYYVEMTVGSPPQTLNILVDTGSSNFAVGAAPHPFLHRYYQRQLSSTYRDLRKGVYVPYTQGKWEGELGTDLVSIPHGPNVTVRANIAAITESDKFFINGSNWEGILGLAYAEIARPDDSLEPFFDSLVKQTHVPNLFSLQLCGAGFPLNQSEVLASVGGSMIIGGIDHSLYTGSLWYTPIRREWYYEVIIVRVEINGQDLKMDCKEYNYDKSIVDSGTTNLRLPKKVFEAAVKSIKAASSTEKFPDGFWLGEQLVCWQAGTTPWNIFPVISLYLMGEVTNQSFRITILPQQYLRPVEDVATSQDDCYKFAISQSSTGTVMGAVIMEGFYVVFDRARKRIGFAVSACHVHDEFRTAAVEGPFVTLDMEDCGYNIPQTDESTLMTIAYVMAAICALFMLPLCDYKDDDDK
T6 sequence (P56817 with tags, fused parts or gaps): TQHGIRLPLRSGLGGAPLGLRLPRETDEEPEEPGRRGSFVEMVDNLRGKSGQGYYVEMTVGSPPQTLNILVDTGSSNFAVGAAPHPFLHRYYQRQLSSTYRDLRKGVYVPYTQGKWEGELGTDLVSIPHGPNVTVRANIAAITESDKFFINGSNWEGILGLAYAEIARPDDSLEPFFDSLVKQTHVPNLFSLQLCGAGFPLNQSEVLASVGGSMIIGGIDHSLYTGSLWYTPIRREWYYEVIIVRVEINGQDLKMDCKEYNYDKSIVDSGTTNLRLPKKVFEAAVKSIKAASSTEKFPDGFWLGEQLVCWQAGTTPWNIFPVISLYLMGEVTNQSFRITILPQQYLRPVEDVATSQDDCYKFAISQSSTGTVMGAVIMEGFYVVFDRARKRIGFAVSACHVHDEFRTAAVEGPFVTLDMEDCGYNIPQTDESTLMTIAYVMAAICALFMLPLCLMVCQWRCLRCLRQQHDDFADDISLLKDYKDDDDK

`CN(C)CC[C@@H]1CCc2cc(OCc3ccc(-c4ccccc4)cc3)ccc2C1` [Compound A]: the inhibition at 10 µM in experiment [1] worked out at 30%; in experiment [5], 29%. Further, the “inhibitory activity on the recombinant human BACE-1” value in experiment [2] is listed as “no inhibitory activity”. The “inhibitory activity on BACE1-454” value in experiment [3] is “no inhibitory activity”. Further, the “inhibitory activity on BACE1-465” value in experiment [4] is reported as “no inhibitory activity”.

For the compound `CCN(CC)CCC1CCc2cc(OCc3ccc(-c4ccccc4)cc3)ccc2C1` (centres unmarked) [Compound D], the inhibition at 10 µM in experiment [1] was 38%; in experiment [5], 42%. In addition, the “inhibitory activity on the recombinant human BACE-1” value in experiment [2] is reported as “no inhibitory activity”. In addition, the “inhibitory activity on BACE1-454” value in experiment [3] is given as “no inhibitory activity”. Moreover, the “inhibitory activity on BACE1-465” value in experiment [4] was “no inhibitory activity”.

In the case of `C[N+](C)([O-])CC[C@@H]1CCc2cc(OCc3ccc(-c4ccccc4)cc3)ccc2C1` [Compound H], the inhibition at 10 µM in experiment [1] amounted to 34%; in experiment [5] it was 31%. For the same compound, the “inhibitory activity on the recombinant human BACE-1” value in experiment [2] is on record as “no inhibitory activity”. Also, in experiment [3], the “inhibitory activity on BACE1-454” value is “no inhibitory activity”. The “inhibitory activity on BACE1-465” value in experiment [4] was “no inhibitory activity”.

`NCCC1CCc2cc(OCc3ccc(-c4ccccc4)cc3)ccc2C1` (centres unmarked) [Compound I]: the inhibition at 10 µM in experiment [1] is 37%; in experiment [5], 70%. For the same compound, the “inhibitory activity on the recombinant human BACE-1” value in experiment [2] was “no inhibitory activity”. For the same compound, the “inhibitory activity on BACE1-454” value in experiment [3] was “no inhibitory activity”. Moreover, the “inhibitory activity on BACE1-465” value in experiment [4] is given as “no inhibitory activity”.

As for `Cc1ccc(-c2ccc(COc3ccc4c(c3)CC[C@@H](CCN(C)C)C4)cc2)cc1` [Compound J], in experiment [6], the “SPR signal showing the binding to BACE1-501” value is recorded as “binding”. In addition, the figures for the inhibition at 10 µM in experiment [1] and in experiment [5] were 37% and 48%, respectively. For the same compound, in experiment [2], the “inhibitory activity on the recombinant human BACE-1” value is “no inhibitory activity”. The “inhibitory activity on BACE1-454” value in experiment [3] was “no inhibitory activity”. Besides, in experiment [4], the “inhibitory activity on BACE1-465” value is recorded as “no inhibitory activity”.
